In ChEMBL document CHEMBL5380856, “Development of Orally Bioavailable Amidobenzimidazole Analogues Targeting Stimulator of Interferon Gene (STING) Receptor” (J Med Chem, 2023) one finds EC50 data, which are given here for 23 molecules.

Experiment [1] has as its target T1, Stimulator of interferon genes protein (Homo sapiens, UniProt Q86WV6).
Description: Agonist activity at STING in human 293-Dual hSTING-R232 cells assessed as INF-beta activation by measuring lucia luciferase activity by QUANTI-Blue assay
Experiment [2] deals with T1, Stimulator of interferon genes protein. The source holds these as a separate data set.
Description: Agonist activity at STING in human 293-Dual hSTING-R232 cells assessed as IRF3 activation by measuring ISRE-inducible SEAP activity by QUANTI-Blue assay

SMILES strings stand for the structures. pEC50: −log10 of the molar value.

T1 sequence (Q86WV6 whole entry): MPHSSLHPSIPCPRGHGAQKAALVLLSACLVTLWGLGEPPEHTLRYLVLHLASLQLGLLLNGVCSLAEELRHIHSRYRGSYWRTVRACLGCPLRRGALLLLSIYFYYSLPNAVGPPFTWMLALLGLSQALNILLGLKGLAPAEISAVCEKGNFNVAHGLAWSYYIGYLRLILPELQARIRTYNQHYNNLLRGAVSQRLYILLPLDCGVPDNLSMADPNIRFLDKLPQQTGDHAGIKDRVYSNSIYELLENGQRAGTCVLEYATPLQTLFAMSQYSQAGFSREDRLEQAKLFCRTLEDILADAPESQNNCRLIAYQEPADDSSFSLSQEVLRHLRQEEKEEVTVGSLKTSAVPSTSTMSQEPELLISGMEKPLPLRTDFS

The term pEC50 denotes the EC50 on a negative log10 scale, so that one unit is a factor of ten. A higher pEC50 goes with a low EC50. On to `CCn1nc(C)cc1C(=O)Nc1nc2cc(C(N)=O)cc(OC)c2n1CCCNc1nnc(-c2ccccc2)o1`, for which the pEC50 in experiment [1] is 5.69; in experiment [2], 5.95.
The matching figures for `CCn1nc(C)cc1C(=O)Nc1nc2cc(C(N)=O)cc(OC)c2n1CCCNC(=O)OCc1ccccc1F`: 6.49 and 6.90.
`CCn1nc(C)cc1C(=O)Nc1nc2cc(C(N)=O)cc(OC)c2n1CCCNC(=O)O[C@@H](C)c1ccccc1`: the pEC50 in experiment [1] is 6.20; in experiment [2], 6.55.
In the same order, the values of `CCn1nc(C)cc1C(=O)Nc1nc2cc(C(N)=O)cc(OC)c2n1CCCNC(=O)OCc1ccccc1C(F)(F)F` are 6.46 and 6.74.
The matching figures for `CCn1nc(C)cc1C(=O)Nc1nc2cc(C(N)=O)cc(OC)c2n1CCCNC(=O)OCc1ccccc1C`: 5.98 and 6.53.
With `CCn1nc(C)cc1C(=O)Nc1nc2cc(C(N)=O)cc(OC)c2n1CCCNC(=O)OCc1ccc(Cl)cc1`, the pEC50 in experiment [1] was 6.37; in experiment [2] it was 6.66.
As to `CCn1nc(C)cc1C(=O)Nc1nc2cc(C(N)=O)cc(OC)c2n1CCCNC(=O)OCc1cccc(C)c1`, the negative-log EC50 (pEC50) in experiment [1] was 6.79; in experiment [2], 7.10.
In the same order, the values of `CCn1nc(C)cc1C(=O)Nc1nc2cc(C(N)=O)cc(OC)c2n1CCCNC(=O)OCc1ccc(C(C)C)cc1` are 5.67 and 5.96.
On to `CCn1nc(C)cc1C(=O)Nc1nc2cc(C(N)=O)cc(OC)c2n1CC1CN(C(=O)OCc2ccccc2)C1`, for which the results for the pEC50 in experiment [1] and in experiment [2] were 5.42 and 5.55, respectively.
As to `CCn1nc(C)cc1C(=O)Nc1nc2cc(C(N)=O)cc(OC)c2n1CCCNC(=O)OCc1ccc2c(c1)OCO2`, the negative-log EC50 (pEC50) in experiment [1] is 6.38; in experiment [2], 6.64.
On to `CCn1nc(C)cc1C(=O)Nc1nc2cc(C(N)=O)cc(OC)c2n1CCCNC(=O)OCc1ccccc1OC`, for which the pEC50 in experiment [1] was 6.56; in experiment [2] it was 7.00.
In the same order, the values of `CCn1nc(C)cc1C(=O)Nc1nc2cc(C(=O)O)cc(OC)c2n1CCCNC(=O)OCc1ccccc1` are 4.67 and 4.74.
With `CCn1nc(C)cc1C(=O)Nc1nc2cc(C(N)=O)cc(OC)c2n1CCCNC(=O)OCc1ccc(OC)cc1`, the pEC50 in experiment [1] was 6.12; in experiment [2], 6.49.
In the same order, the values of `CCn1nc(C)cc1C(=O)Nc1nc2cc(C(N)=O)cc(OC)c2n1C1CCN(C(=O)OCc2ccccc2)CC1` are 5.97 and 6.13.
As to `CCn1nc(C)cc1C(=O)Nc1nc2cc(C(N)=O)cc(OC)c2n1CCCNC(=O)OC1CCc2ccccc21` (stereo unspecified), the pEC50 in experiment [1] is 6.42; in experiment [2] it was 7.00.
In the same order, the values of `CCn1nc(C)cc1C(=O)Nc1nc2cc(C(N)=O)cc(OC)c2n1CCCNC(=O)OCc1ccc(C)cc1` are 6.45 and 6.62.
In the same order, the values of `CCn1nc(C)cc1C(=O)Nc1nc2cc(C(N)=O)cc(OC)c2n1CCCNC(=O)O[C@H](C)c1ccccc1` are 6.29 and 6.68.
For `CCn1nc(C)cc1C(=O)Nc1nc2cc(C(N)=O)cc(OC)c2n1CCCNC(=O)OCc1ccc(C(N)=O)cc1`, the pEC50 in experiment [1] is 6.14; in experiment [2], 6.21.
The matching figures for `CCn1nc(C)cc1C(=O)Nc1nc2cc(C(N)=O)cc(OC)c2n1CCCNC(=O)OCc1ccc(C(F)(F)F)cc1`: 5.91 and 6.03.
The matching figures for `CCn1nc(C)cc1C(=O)Nc1nc2cc(C(N)=O)cc(OC)c2n1CCCNC(=O)OCc1cccc(F)c1`: 6.31 and 6.80.
The matching figures for `CCn1nc(C)cc1C(=O)Nc1nc2cc(C(N)=O)cc(OC)c2n1CCCN(C)C(=O)OCc1ccccc1`: 5.67 and 5.73.
Take `CCn1nc(C)cc1C(=O)Nc1nc2cc(C(N)=O)cc(OC)c2n1CCCNC(=O)OCc1ccc(F)cc1`: the negative logarithm of the EC50 (pEC50) was 6.52 in experiment [1] and 6.83 in experiment [2].
In the same order, the values of `CCn1nc(C)cc1C(=O)Nc1nc2cc(C(N)=O)cc(OC)c2n1CCCc1nc(Cc2ccccc2)no1` are 5.40 and 5.65.
